Measurements reported in the Kinase Knowledgebase extract (Sharma et al. 2016).

Molecular target: MAPK14 (UniProt Q16539)
Assay: p38-alpha Inhibition
Details: not given

Chain of MAPK14 (Q16539 whole entry, looked up): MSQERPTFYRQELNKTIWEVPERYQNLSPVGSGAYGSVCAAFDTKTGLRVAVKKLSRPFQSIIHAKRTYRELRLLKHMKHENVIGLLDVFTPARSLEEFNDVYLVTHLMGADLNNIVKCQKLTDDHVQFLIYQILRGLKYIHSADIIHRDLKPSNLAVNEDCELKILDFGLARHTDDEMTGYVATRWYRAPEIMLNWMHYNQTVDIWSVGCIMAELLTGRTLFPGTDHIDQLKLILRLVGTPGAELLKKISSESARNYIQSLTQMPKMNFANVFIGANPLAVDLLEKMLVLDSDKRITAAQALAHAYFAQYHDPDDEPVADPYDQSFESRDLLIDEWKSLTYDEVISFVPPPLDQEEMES

Structure (SMILES)	IC50
c1ccc(-c2nc(Nc3ccncc3)c3ccccc3n2)cc1	800 nM
Cc1ccccc1-c1nc(Nc2ccncc2)c2ccccc2n1	800 nM
Nc1ccc2nc(-c3ccccc3F)nc(Nc3ccncc3)c2c1	800 nM
Clc1ccccc1-c1nc(Nc2ccncc2)c2ccccc2n1	800 nM
Brc1ccccc1-c1nc(Nc2ccncc2)c2ccccc2n1	800 nM
Fc1ccccc1-c1nc(Nc2ccncc2)c2ccccc2n1	800 nM
c1ccc(-c2nc(NCc3ccncc3)c3ccccc3n2)cc1	800 nM
Fc1ccc(-c2nc(Nc3ccncc3)c3ccccc3n2)cc1	800 nM
COc1cccc(Nc2nc(-c3ccccc3)nc3ccccc23)c1	800 nM

Same assay, conditions: concentration not given here

Structure (SMILES)	inhibition
COc1cc2nc(-c3ccccc3Cl)nc(Nc3ccncc3)c2cc1OC	> 90%
COc1ccc(CNc2ccc3nc(-c4ccccc4F)nc(Nc4ccncc4)c3c2)cc1	> 90%
COc1cccc(CNc2ccc3nc(-c4ccccc4F)nc(Nc4ccncc4)c3c2)c1	> 90%
Nc1ccc2c(Nc3ccncc3)nc(-c3ccccc3F)nc2c1	> 90%
O=[N+]([O-])c1ccc2nc(-c3ccccc3F)nc(Nc3ccncc3)c2c1	> 90%
Nc1ccc2nc(-c3ccccc3F)nc(Nc3ccncc3)c2c1	> 90%
COc1cccc(CNc2ccc3c(Nc4ccncc4)nc(-c4ccc(F)cc4)nc3c2)c1	> 90%
COc1ccc(C(=O)Nc2ccc3nc(-c4ccccc4F)nc(Nc4ccncc4)c3c2)cc1	> 90%
Nc1ccc2c(Nc3ccncc3)nc(-c3ccc(F)cc3)nc2c1	> 90%
CC(C)CNc1ccc2nc(-c3ccccc3F)nc(Nc3ccncc3)c2c1	> 90%
CSc1ccc(CNc2ccc3nc(-c4ccccc4F)nc(Nc4ccncc4)c3c2)cc1	> 90%
